Source: patent US4426524A, “Heterocyclic substituted benzyl alcohol, insecticidal ester derivatives, and intermediates” (priority 1982, dated 1984)

Assays:
southern armyworm [1] = assay: Topical application, southern armyworm; assay type: in vivo, Spodoptera eridania; conditions: SAW; for Topical % Kill @ 5000 ng/insect: 24 hours
Description: (§1) Topical Application: The compounds of this invention were tested for insecticidal activity against various insect species selected from southern armyworm (Spodoptera eridania), Mexican bean beetle, (Epilachna varivestis), milkweed bug (Oncopeltus fasciatus), and cabbage looper (Tricoplusia ni) by applying to the second or third dorsal thoracic segment of each larvae a one microliter droplet containing 5 mg/mL of test compound in acetone (5000 ng/insect). The test was allowed to stand 24 hours after application and was then read to determine the percent kill.
(§2) To determine the LD50 of the compounds, the topical application test was repeated by applying various amounts of toxicant. Also included among the species tested against for this determination were tobacco budworm (Heliothis virescens), beet armyworm (Spodoptera exigua), and boll weevil (Anthonomus grandis).

cabbage looper [2] = assay: Topical application, cabbage looper; assay type: in vivo, Tricoplusia ni; conditions: CL; for Topical % Kill @ 5000 ng/insect: 24 hours
Description: as §1, §2

Mexican bean beetle [3] = assay: Topical application, Mexican bean beetle; assay type: in vivo, Epilachna varivestis; conditions: MBB; for Topical % Kill @ 5000 ng/insect: 24 hours
Description: as §1, §2

southern armyworm [4] = assay: Foliar application, southern armyworm; assay type: in vivo; conditions: Spodoptera eridania, SAW, foliar, 48 hours, read-out: Foliar % Kill (ppm)
Description: (§3) Foliar Application: The activity of some of the compounds of the invention against various test species selected from pea aphid (Acyrthosiphon pisum), twospotted spider mite (Tetranychus urticae), southern armyworm (Spodoptera eridania), Mexican bean beetle (Epilachna varivestis), and cabbage looper (Tricoplusia ni) was determined by foliar application of the test compound. The test materials were formulated as aqueous solutions containing 10% acetone and 0.25% acetylphenoxypolyethoxyethanol. Activity against pea aphid was determined on English fava bean plants the leaves of which were sprayed to runoff with various concentrations of test solution prior to infestation with adult aphids. Activity against twospotted spider mite was evaluated on pinto bean plants whose leaves were sprayed to runoff with various concentrations of test solution after infestation with adult mites. Activity against the remaining species was evaluated on pinto bean plants whose leaves were sprayed to runoff with various concentrations of test solution before infestation with the appropriate immature insects. Mortality was read approximately 48 hours after treatment.

Mexican bean beetle [5] = assay: Foliar application, Mexican bean beetle; assay type: in vivo; conditions: Epilachna varivestis, MBB, foliar, 48 hours, read-out: Foliar % Kill (ppm)
Description: as §3

tobacco budworm = assay: Topical application, tobacco budworm; assay type: in vivo, Heliothis virescens; conditions: TBW
Description: as §1, §2

pea aphid = assay: Foliar application, pea aphid; assay type: in vivo; conditions: Acyrthosiphon pisum, PA, foliar, 48 hours, read-out: Foliar % Kill (ppm)
Description: as §3

twospotted spider mite = assay: Foliar application, twospotted spider mite; assay type: in vivo; conditions: Tetranychus urticae, TSM, foliar, 48 hours, read-out: Foliar % Kill (ppm)
Description: as §3

milkweed bug = assay: Topical application, milkweed bug; assay type: in vivo, Oncopeltus fasciatus; conditions: MWB; for Topical % Kill @ 5000 ng/insect: 24 hours
Description: as §1, §2

cabbage looper [6] = assay: Foliar application, cabbage looper; assay type: in vivo, Tricoplusia ni; conditions: Trichoplusia ni, CL, 48 hours, read-out: Foliar % Kill (ppm)
Description: as §3

boll weevil = assay: Topical application, boll weevil; assay type: in vivo, Anthonomus grandis; conditions: BW
Description: as §1, §2

CC1(C)C(C=C(Cl)Cl)C1C(=O)OCc1cccc(-c2cccs2)c1 (mixture of isomers) [a, 3-(2-thienyl)phenylmethyl cis,trans-3-(2,2-dichloroethenyl)-2,2-dimethylcyclopropanecarboxylate]
Topical LD50 (southern armyworm [1]): 148 ng/insect
Topical % Kill @ 5000 ng/insect (southern armyworm [1]): 100%
Topical LD50 (cabbage looper [2]): 3649 ng/insect
Topical % Kill @ 5000 ng/insect (cabbage looper [2]): 100%

Cc1c(COC(=O)C2C(C=C(Cl)Cl)C2(C)C)cccc1-c1ccco1 (mixture of isomers) [o, [3-(2-furanyl)-2-methylphenyl]methyl cis,trans-3-(2,2-dichloroethenyl)-2,2-dimethylcyclopropanecarboxylate]
Topical LD50 (Mexican bean beetle [3]): 86 ng/insect
Topical % Kill @ 5000 ng/insect (Mexican bean beetle [3]): 100%
mortality at 500 ppm (southern armyworm [4]): 100%
mortality at 64 ppm (Mexican bean beetle [5]): 45%
Topical LD50 (tobacco budworm): 45 ng/insect
mortality at 500 ppm (pea aphid): 100%
mortality at 16 ppm (twospotted spider mite): 0%
Topical LD50 (southern armyworm [1]): 146 ng/insect
Topical % Kill @ 5000 ng/insect (southern armyworm [1]): 100%
Topical LD50 (milkweed bug): 450 ng/insect
Topical % Kill @ 5000 ng/insect (milkweed bug): 100%
Topical LD50 (cabbage looper [2]): 536 ng/insect

CC1(C)[C@H](C=C(Cl)Cl)[C@@H]1C(=O)OCc1cccc(-c2cccs2)c1 (relative stereo) [b, 3-(2-thienyl)phenylmethyl cis-3-(2,2-dichloroethenyl)-2,2-dimethylcyclopropanecarboxylate]
Topical LD50 (Mexican bean beetle [3]): 471 ng/insect
mortality at 512 ppm (southern armyworm [4]): 95%
mortality at 512 ppm (Mexican bean beetle [5]): 80%
mortality at 512 ppm (pea aphid): 80%
mortality at 500 ppm (twospotted spider mite): 0%
Topical LD50 (southern armyworm [1]): 54 ng/insect
Topical LD50 (milkweed bug): 1715 ng/insect
Topical LD50 (cabbage looper [2]): 1275 ng/insect

CC1(C)[C@@H](C=C(Cl)Cl)[C@@H]1C(=O)OCc1cccc(-c2cccs2)c1 (relative stereo) [c, 3-(2-thienyl)phenylmethyl trans-3-(2,2-dichloroethenyl)-2,2-dimethylcyclopropanecarboxylate]
Topical LD50 (southern armyworm [1]): 421 ng/insect
Topical % Kill @ 5000 ng/insect (southern armyworm [1]): 100%
Topical % Kill @ 5000 ng/insect (cabbage looper [2]): 0%

Cc1c(COC(=O)[C@H]2[C@H](C=C(Cl)Cl)C2(C)C)cccc1-c1cccs1 (relative stereo) [f, [2-methyl-3-(2-thienyl)phenyl]methyl trans-3-(2,2-dichloroethenyl)-2,2-dimethylcyclopropanecarboxylate]
mortality at 512 ppm (southern armyworm [4]): 100%
mortality at 512 ppm (Mexican bean beetle [5]): 100%
mortality at 512 ppm (pea aphid): 100%
mortality at 120 ppm (cabbage looper [6]; 120 ppm): 100%
mortality at 512 ppm (twospotted spider mite; 512 ppm): 71%
Topical LD50 (southern armyworm [1]): 155 ng/insect
Topical LD50 (milkweed bug): 238 ng/insect
Topical % Kill @ 5000 ng/insect (milkweed bug): 100%

Cc1c(COC(=O)[C@H]2[C@@H](C=C(Cl)Cl)C2(C)C)cccc1-c1cccs1 (relative stereo) [g, [2-methyl-3-(2-thienyl)phenyl]methyl cis-3-(2,2-dichloroethenyl)-2,2-dimethylcyclopropanecarboxylate]
Topical LD50 (Mexican bean beetle [3]): 8 ng/insect
mortality at 512 ppm (southern armyworm [4]): 100%
Topical LD50 (boll weevil): 21 ng/insect
mortality at 512 ppm (Mexican bean beetle [5]): 100%
Topical LD50 (tobacco budworm): 107 ng/insect
mortality at 512 ppm (pea aphid): 100%
mortality at 80 ppm (cabbage looper [6]; 80 ppm): 100%
mortality at 64 ppm (twospotted spider mite; 64 ppm): 0%
Topical LD50 (southern armyworm [1]): 51 ng/insect
Topical % Kill @ 5000 ng/insect (southern armyworm [1]): 100%
Topical LD50 (milkweed bug): 234 ng/insect
Topical % Kill @ 5000 ng/insect (milkweed bug): 100%
Topical LD50 (cabbage looper [2]): 0.5 ng/insect

Cc1c(COC(=O)[C@H]2[C@@H](C=C(Br)Br)C2(C)C)cccc1-c1cccs1 (relative stereo) [i, [2-methyl-3-(2-thienyl)phenyl]-methyl cis-3-(2,2-dibromoethenyl)-2,2-dimethylcyclopropanecarboxylate]
Topical LD50 (Mexican bean beetle [3]): 20 ng/insect
Topical % Kill @ 5000 ng/insect (Mexican bean beetle [3]): 100%
mortality at 16 ppm (southern armyworm [4]; 16 ppm): 95%
mortality at 32 ppm (Mexican bean beetle [5]; 32 ppm): 90%
Topical LD50 (tobacco budworm): 177 ng/insect
mortality at 500 ppm (pea aphid): 100%
mortality at 32 ppm (cabbage looper [6]; 32 ppm): 70%
mortality at 500 ppm (twospotted spider mite): 90%
Topical LD50 (southern armyworm [1]): 55 ng/insect
Topical % Kill @ 5000 ng/insect (southern armyworm [1]): 100%
Topical LD50 (milkweed bug): 132 ng/insect
Topical % Kill @ 5000 ng/insect (milkweed bug): 100%
Topical LD50 (cabbage looper [2]): 371 ng/insect

Cc1c(COC(=O)[C@H]2[C@@H](C=C(Cl)C(F)(F)F)C2(C)C)cccc1-c1ccco1 (relative stereo) [m, [3-(2-furanyl)-2-methylphenyl]methyl cis-3-(2-chloro-3,3,3-trifluoro-1-propenyl)-2,2-dimethylcyclopropanecarboxylate]
Topical LD50 (Mexican bean beetle [3]): 43 ng/insect
Topical % Kill @ 5000 ng/insect (Mexican bean beetle [3]): 100%
mortality at 500 ppm (southern armyworm [4]): 100%
mortality at 64 ppm (Mexican bean beetle [5]): 75%
Topical LD50 (tobacco budworm): 46 ng/insect
mortality at 500 ppm (pea aphid): 100%
mortality at 16 ppm (twospotted spider mite): 0%
Topical LD50 (southern armyworm [1]): 56 ng/insect
Topical % Kill @ 5000 ng/insect (southern armyworm [1]): 100%
Topical LD50 (milkweed bug): 286 ng/insect
Topical % Kill @ 5000 ng/insect (milkweed bug): 100%
Topical LD50 (cabbage looper [2]): 149 ng/insect

Cc1c(COC(=O)[C@H]2[C@@H](C=C(Cl)Cl)C2(C)C)cccc1-c1ccco1 (relative stereo) [n, [3-(2-furanyl)-2-methylphenyl]methyl cis-3-(2,2-dichloroethenyl)-2,2-dimethylcyclopropanecarboxylate]
Topical LD50 (Mexican bean beetle [3]): 72 ng/insect
Topical % Kill @ 5000 ng/insect (Mexican bean beetle [3]): 100%
mortality at 500 ppm (southern armyworm [4]): 100%
mortality at 64 ppm (Mexican bean beetle [5]): 40%
Topical LD50 (tobacco budworm): 92 ng/insect
mortality at 64 ppm (pea aphid; 64 ppm): 100%
mortality at 16 ppm (twospotted spider mite): 0%
Topical LD50 (southern armyworm [1]): 73 ng/insect
Topical LD50 (milkweed bug): 1140 ng/insect
Topical % Kill @ 5000 ng/insect (milkweed bug): 100%
Topical LD50 (cabbage looper [2]): 341 ng/insect

Cc1c(COC(=O)[C@H]2[C@@H](C=C(Cl)C(F)(F)F)C2(C)C)cccc1-c1ccccn1 (relative stereo) [s, [2-methyl-3-(pyridin-2-yl)phenyl]methyl cis-3-(2-chloro-3,3,3-trifluoro-1-propenyl)-2,2-dimethylcyclopropanecarboxylate]
Topical LD50 (Mexican bean beetle [3]): 38 ng/insect
Topical % Kill @ 5000 ng/insect (Mexican bean beetle [3]): 100%
mortality at 500 ppm (southern armyworm [4]): 100%
mortality at 64 ppm (Mexican bean beetle [5]): 60%
mortality at 500 ppm (pea aphid): 100%
mortality at 500 ppm (twospotted spider mite): 80%
Topical LD50 (southern armyworm [1]): 60 ng/insect
Topical % Kill @ 5000 ng/insect (southern armyworm [1]): 100%
Topical LD50 (milkweed bug): 607 ng/insect
Topical % Kill @ 5000 ng/insect (milkweed bug): 100%

Cc1c(COC(=O)[C@@H]2[C@H](C=C(Cl)Cl)C2(C)C)cccc1-c1cccs1 [h, [2-methyl-3-(2-thienyl)phenyl]-methyl 1R-cis-3-(2,2-dichloroethenyl)-2,2-dimethylcyclopropanecarboxylate]
Topical LD50 (Mexican bean beetle [3]): 9 ng/insect
Topical % Kill @ 5000 ng/insect (Mexican bean beetle [3]): 100%
mortality at 6.5 ppm (southern armyworm [4]; 6.5 ppm): 100%
mortality at 16 ppm (Mexican bean beetle [5]; 16 ppm): 95%
Topical LD50 (tobacco budworm): 38 ng/insect
mortality at 500 ppm (pea aphid): 100%
mortality at 16 ppm (cabbage looper [6]; 16 ppm): 90%
mortality at 500 ppm (twospotted spider mite): 100%
Topical LD50 (southern armyworm [1]): 22 ng/insect
Topical LD50 (milkweed bug): 64 ng/insect
Topical % Kill @ 5000 ng/insect (milkweed bug): 100%
Topical LD50 (cabbage looper [2]): 136 ng/insect
